Measurements reported in the supplement of paper PMC11061612.

Columns and labels:
[1] = tested on: DU-145 (Prostate Carcinoma); assay: Bliss excess, mean over the matrix (fraction); higher = more synergy
Summary of the method: (§1)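 Bliss excess equals the observed combination effect minus the expected value EA + EB − EA·EB, where EA and EB are the effects of each agent alone. Combination Emax is the second-highest inhibition within the matrix. Inhibition was scaled from CellTiter-Glo 2.0 luminescence, with 0 set by vehicle wells and 1 by blank wells, after 72 hours of two-drug dosing of cells plated in 1536-well plates.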

[2] = tested on: OACM5-1 (Esophageal Adenocarcinoma); assay: as above
Summary of the method: as §1

[3] = tested on: EFO-21 (Ovarian Carcinoma); assay: combination Emax (second highest fraction inhibited in the dose matrix, 72 h); higher = more inhibition; extreme values may be limits of the assay
Summary of the method: as §1

[4] = tested on: EJM (Plasma Cell Myeloma); assay: as above
Summary of the method: as §1

EW-1 (Ewing's Sarcoma) = assay: as above
Summary of the method: as §1

[5] = tested on: G-401 (Other Solid Carcinomas); assay: as above
Summary of the method: as §1

[6] = tested on: HCC1500 (Breast Carcinoma); assay: as above
Summary of the method: as §1

[7] = tested on: HCC1937 (Breast Carcinoma); assay: as above
Summary of the method: as §1

[8] = tested on: HCC2998 (Colorectal Carcinoma); assay: as above
Summary of the method: as §1

Hey (Ovarian Carcinoma) = assay: as above
Summary of the method: as §1

[9] = tested on: LC-1-sq (Squamous Cell Lung Carcinoma); assay: as above
Summary of the method: as §1

[10] = tested on: ME-180 (Cervical Carcinoma); assay: as above
Summary of the method: as §1

[11] = tested on: ML-2 (Acute Myeloid Leukemia); assay: as above
Summary of the method: as §1

[12] = tested on: MV-4-11 (Acute Myeloid Leukemia); assay: as above
Summary of the method: as §1

[13] = tested on: NCI-H1092 (Small Cell Lung Carcinoma); assay: as above
Summary of the method: as §1

[14] = tested on: NCI-H1993 (Lung Adenocarcinoma); assay: as above
Summary of the method: as §1

[15] = tested on: NCI-H2122 (Lung Adenocarcinoma); assay: as above
Summary of the method: as §1

SK-N-AS (Neuroblastoma) = assay: as above
Summary of the method: as §1

[16] = tested on: SW872 (Other Solid Carcinomas); assay: as above
Summary of the method: as §1

[17] = tested on: SW982 (Other Solid Carcinomas); assay: as above
Summary of the method: as §1

Row | SMILES | Bliss excess [1] | Bliss excess [2] | combination Emax [3] | combination Emax [4] | combination Emax (EW-1 (Ewing's Sarcoma)) | combination Emax [5] | combination Emax [6] | combination Emax [7] | combination Emax [8] | combination Emax (Hey (Ovarian Carcinoma)) | combination Emax [9] | combination Emax [10] | combination Emax [11] | combination Emax [12] | combination Emax [13] | combination Emax [14] | combination Emax [15] | combination Emax (SK-N-AS (Neuroblastoma)) | combination Emax [16] | combination Emax [17]
1 | Cc1c2c(nn1C)CSCc1cc(n(C)n1)CSc1cc(c3ccccc3c1)OCCCc1c(C(=O)O)n(C)c3c-2c(Cl)ccc13 [AZD5991] + C[C@@H]1COCCN1C2=NC(=NC(=C2)C3(CC3)[S@](=N)(=O)C)C4=C5C=CNC5=NC=C4 [AZD6738] (first compound max 1 µM, 7x7, partner max 10 µM) | 0.0122 | 0.0257 | 0.484 | 1 | 0.965 | 0.828 | 0.781 | 0.557 | 0.994 | 0.806 | 0.845 | 0.485 | 1 | 1 | 0.887 | 0.517 | 0.957 | 0.966 | 0.547 | 0.748
2 | Cc1c2c(nn1C)CSCc1cc(n(C)n1)CSc1cc(c3ccccc3c1)OCCCc1c(C(=O)O)n(C)c3c-2c(Cl)ccc13 [AZD5991] + C[C@@H](Nc1cc(F)cc(F)c1)c1cc(C(=O)N(C)C)cc2c(=O)cc(N3CCOCC3)oc12 [AZD8186] (first compound max 1 µM, 7x7, partner max 3 µM) | -0.0204 | 0.0078 | 0.337 | 0.929 | 0.367 | 0.612 | 0.426 | 0.511 | 0.918 | 0.258 | 0.24 | 0.217 | 1 | 1 | 0.569 | 0.455 | 0.697 | 0.643 | 0.321 | 0.443
3 | C[C@@H]1COCCN1c1cc(C2([S@](C)(=N)=O)CC2)nc(-c2ccnc3[nH]ccc23)n1 [AZD6738] + O=C(c1cc(Cc2n[nH]c(=O)c3ccccc23)ccc1F)N1CCN(C(=O)C2CC2)CC1 [Olaparib] (first compound max 10 µM, 7x7, partner max 10 µM) | 0.0008 | 0.0071 | 0.412 | 0.899 | 0.898 | 0.491 | 0.341 | 0.517 | 0.811 | 0.699 | 0.839 | 0.425 | 0.955 | 0.985 | 0.184 | 0.549 | 0.902 | 0.687 | 0.63 | 0.781
4 | NC1(C(=O)N[C@@H](CCO)c2ccc(Cl)cc2)CCN(c2ncnc3[nH]ccc23)CC1 [Capivasertib] + CC(=O)c1c(C)c2cnc(Nc3ccc(N4CCNCC4)cn3)nc2n(C2CCCC2)c1=O [Palbociclib] (first compound max 10 µM, 7x7, partner max 10 µM) | -0.0272 | -0.0299 | 0.101 | 0.391 | 0.608 | 0.898 | 0.239 | 0.477 | 0.591 | 0.578 | 0.206 | 0.629 | 0.593 | 0.861 | 0.177 | 0.647 | 0.793 | 0.351 | 0.413 | 0.607
5 | NC1(C(=O)N[C@@H](CCO)c2ccc(Cl)cc2)CCN(c2ncnc3[nH]ccc23)CC1 [Capivasertib] + CC(C)n1c(=O)n(C)c2cnc3cc(F)c(-c4ccc(OCCCN5CCCCC5)nc4)cc3c21 [AZD1390] (first compound max 10 µM, 7x7, partner max 0.3 µM) | -0.0598 | -0.0676 | 0.217 | 0.292 | 0.352 | 0.545 | 0.165 | 0.426 | 0.398 | 0.225 | 0.253 | 0.636 | 0.71 | 0.722 | 0.2 | 0.595 | 0.57 | 0.157 | 0.342 | 0.435
6 | NC1(C(=O)N[C@@H](CCO)c2ccc(Cl)cc2)CCN(c2ncnc3[nH]ccc23)CC1 [Capivasertib] + CCN(CCO)CCCOc1ccc2c(Nc3cc(CC(=O)Nc4cccc(F)c4)[nH]n3)ncnc2c1 [AZD2811] (first compound max 10 µM, 7x7, partner max 1 µM) | -0.0485 | -0.0245 | 0.235 | 0.43 | 0.568 | 0.658 | 0.265 | 0.481 | 0.5 | 0.471 | 0.322 | 0.7 | 1 | 0.954 | 0.353 | 0.605 | 0.797 | 0.329 | 0.336 | 0.672
7 | NC1(C(=O)N[C@@H](CCO)c2ccc(Cl)cc2)CCN(c2ncnc3[nH]ccc23)CC1 [Capivasertib] + COc1nnc2ccc(N3CCC(c4ccc(OCCN5CCN(C)C(=O)[C@H]5C)cc4)CC3)nn12 [AZD5153] (first compound max 10 µM, 7x7, partner max 1 µM) | 0.0276 | -0.019 | 0.321 | 0.658 | 0.71 | 0.79 | 0.264 | 0.44 | 0.872 | 0.556 | 0.815 | 0.693 | 0.997 | 1 | 0.364 | 0.676 | 0.817 | 0.445 | 0.553 | 0.848
8 | NC1(C(=O)N[C@@H](CCO)c2ccc(Cl)cc2)CCN(c2ncnc3[nH]ccc23)CC1 [Capivasertib] + C[C@@H]1COCCN1C2=NC(=NC(=C2)C3(CC3)[S@](=N)(=O)C)C4=C5C=CNC5=NC=C4 [AZD6738] (first compound max 10 µM, 7x7, partner max 10 µM) | -0.0128 | 0.0338 | 0.415 | 0.908 | 0.938 | 0.751 | 0.335 | 0.518 | 0.814 | 0.777 | 0.74 | 0.755 | 0.928 | 0.975 | 0.387 | 0.742 | 0.974 | 0.738 | 0.452 | 0.727
9 | NC1(C(=O)N[C@@H](CCO)c2ccc(Cl)cc2)CCN(c2ncnc3[nH]ccc23)CC1 [Capivasertib] + Cn1cnc2c(F)c(Nc3ccc(Br)cc3Cl)c(C(=O)NOCCO)cc21 [Selumetinib] (first compound max 10 µM, 7x7, partner max 10 µM) | 0.0037 | 0.0183 | 0.335 | 0.403 | 0.437 | 0.746 | 0.25 | 0.527 | 0.774 | 0.773 | 0.34 | 0.681 | 0.985 | 0.881 | 0.215 | 0.839 | 0.983 | 0.515 | 0.449 | 0.574
10 | COc1cccc2c1C(=O)c1c(O)c3c(c(O)c1C2=O)C[C@@](O)(C(=O)CO)C[C@@H]3O[C@H]1C[C@H](N)[C@H](O)[C@H](C)O1 [Doxorubicin] + Cc1cc2ncnn2cc1Nc1ncc2c(n1)n(C1CCOCC1)c(=O)n2C [AZD7648] (first compound max 1 µM, 7x7, partner max 10 µM) | 0.0052 | 0.0577 | 0.482 | 0.903 | 0.952 | 0.938 | 0.887 | 0.439 | 0.943 | 0.906 | 0.727 | 0.958 | 0.913 | 1 | 0.479 | 0.968 | 0.284 | 0.723 | 0.811 | 0.884
11 | CS(=O)(=O)CCNCc1ccc(-c2ccc3ncnc(Nc4ccc(OCc5cccc(F)c5)c(Cl)c4)c3c2)o1 [Lapatinib] + C[C@@H](Oc1cc(-c2cnn(C3CCNCC3)c2)cnc1N)c1c(Cl)ccc(F)c1Cl [Crizotinib] (first compound max 10 µM, 7x7, partner max 10 µM) | -0.0242 | -0.0691 | 0.371 | 0.937 | 0.966 | 0.942 | 0.854 | 0.674 | 0.938 | 0.865 | 0.931 | 0.81 | 0.983 | 0.978 | 0.604 | 0.94 | 0.962 | 0.359 | 0.496 | 0.968
12 | CC(=O)c1c(C)c2cnc(Nc3ccc(N4CCNCC4)cn3)nc2n(C2CCCC2)c1=O [Palbociclib] + CC1(C)CCC(CN2CCN(c3ccc(C(=O)NS(=O)(=O)c4ccc(NCC5CCOCC5)c([N+](=O)[O-])c4)c(Oc4cnc5[nH]ccc5c4)c3)CC2)=C(c2ccc(Cl)cc2)C1 [Venetoclax] (first compound max 10 µM, 7x7, partner max 1 µM) | -0.0406 | 0.108 | 0.105 | 0.159 | 0.528 | 0.849 | 0.545 | 0.0808 | 0.416 | 0.355 | 0.166 | 0.0846 | 0.949 | 1 | 0.222 | 0.403 | 0.688 | 0.125 | 0.0843 | 0.57
